Measurements published in patent US10894817B2, “Fatty acid modified urocortin-2 analogs for the treatment of diabetes and chronic kidney disease” (priority 2016, dated 2021).
Starred links: 1 amine or outer side, 2 acyl side, 3 side chain; linkers in the order of their positions; H or OH if unused. Non-standard residues stand in square brackets, D forms with d. Residues, ends and D or L forms follow the SMILES beside them. Groups on a side chain read outwards from the residue. *: point of attachment. C20 diacid = O=C(O)CCCCCCCCCCCCCCCCCCC(=O)*; C18 diacid = O=C(O)CCCCCCCCCCCCCCCCC(=O)*; γGlu = O=C(O)[C@H](CCC(=O)[*:2])N[*:1]; Palmitoyl = CCCCCCCCCCCCCCCC(=O)*; NMeI = CC[C@H](C)[C@H](NC)C(=O)O; AEEA = NCCOCCOCC(=O)O

The compounds below were run against T1, human CRHR2b (Homo sapiens, UniProt Q13324) (assay: human CRHR2b cell-based cAMP assay). Conditions: cAMP assay; Table 26, compounds of Example 9; read-out: hCRHR2b Average EC50.
T1 construct: expressed in transfected cells; host or cells: Chinese Hamster Ovary (CHO) cells, transient transfection
T1 sequence (Q13324 1-438 isoform Q13324-2): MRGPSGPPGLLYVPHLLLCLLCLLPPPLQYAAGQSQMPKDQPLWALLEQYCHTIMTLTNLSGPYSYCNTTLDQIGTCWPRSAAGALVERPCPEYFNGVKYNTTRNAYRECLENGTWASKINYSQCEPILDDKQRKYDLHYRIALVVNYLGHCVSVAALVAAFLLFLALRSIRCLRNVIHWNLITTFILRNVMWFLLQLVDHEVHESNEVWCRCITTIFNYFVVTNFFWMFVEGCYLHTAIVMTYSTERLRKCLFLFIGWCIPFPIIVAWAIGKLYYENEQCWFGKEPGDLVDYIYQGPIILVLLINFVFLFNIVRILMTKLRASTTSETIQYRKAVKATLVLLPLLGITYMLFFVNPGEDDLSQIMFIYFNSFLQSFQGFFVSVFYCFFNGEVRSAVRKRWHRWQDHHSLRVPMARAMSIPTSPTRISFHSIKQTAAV
Summary of the method: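 ED50 values are means ± SEM over several runs, curve-fitted from cAMP in pmol, calibrated against unlabeled-cAMP standards. Detection was HTRF competition, ratio 665/620 nm, after 30 min agonist exposure at 37 °C.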

| Compound | EC50 |
| --- | --- |
| CC[C@H](C)[C@H](NC)C(=O)N[C@H](C(=O)N[C@@H](CC(C)C)C(=O)N[C@@H](CO)C(=O)N[C@@H](CC(C)C)C(=O)N[C@@H](CC(=O)O)C(=O)N[C@H](C(=O)N1CCC[C@H]1C(=O)N[C@H](C(=O)NCC(=O)N[C@@H](CC(C)C)C(=O)N[C@@H](CC(C)C)C(=O)N[C@@H](CCC(N)=O)C(=O)N[C@H](C(=O)N[C@@H](CC(C)C)C(=O)N[C@@H](CC(C)C)C(=O)N[C@@H](CCC(=O)O)C(=O)N[C@@H](CCC(N)=O)C(=O)N[C@@H](CCC(=O)O)C(=O)N[C@@H](CCCCN)C(=O)N[C@@H](CCC(N)=O)C(=O)N[C@@H](CCC(=O)O)C(=O)N[C@@H](CCCCN)C(=O)N[C@@H](CCC(=O)O)C(=O)N[C@@H](CCCCN)C(=O)N[C@@H](CCC(N)=O)C(=O)N[C@@H](CCC(N)=O)C(=O)N[C@@H](C)C(=O)N[C@@H](CCCCNC(=O)CC[C@H](NC(=O)CC[C@H](NC(=O)CC[C@H](NC(=O)CC[C@H](NC(=O)CCCCCCCCCCCCCCCCCCC(=O)O)C(=O)O)C(=O)O)C(=O)O)C(=O)O)C(=O)N[C@H](C(=O)N[C@@H](CC(N)=O)C(=O)N[C@@H](C)C(=O)N[C@@H](CCC(N)=O)C(=O)N[C@H](C(=O)N[C@@H](CC(C)C)C(=O)N[C@@H](C)C(=O)N[C@@H](CCC(N)=O)C(=O)N[C@H](C(N)=O)C(C)C)[C@@H](C)CC)[C@@H](C)O)[C@@H](C)CC)[C@@H](C)CC)C(C)C)C(C)C [Compound 64] (H-[NMeI]VLSLDVPIGLLQILLEQEKQEKEKQQAK([γGlu-γGlu-γGlu-γGlu-C20 diacid])TNAQILAQV-NH2) | 1.63 nM |
| CCCCCCCCCCCCCCCC(=O)N[C@@H](CCC(=O)N[C@@H](CCC(=O)NCCCC[C@H](NC(=O)[C@H](CCCCN)NC(=O)[C@H](CCC(=O)O)NC(=O)[C@H](CCCCN)NC(=O)[C@H](CCC(=O)O)NC(=O)[C@H](CCC(N)=O)NC(=O)[C@H](CCCCN)NC(=O)[C@H](CCC(=O)O)NC(=O)[C@H](CCC(N)=O)NC(=O)[C@H](CCC(=O)O)NC(=O)[C@H](CC(C)C)NC(=O)[C@H](CC(C)C)NC(=O)[C@@H](NC(=O)[C@H](CCC(N)=O)NC(=O)[C@H](CC(C)C)NC(=O)[C@H](CC(C)C)NC(=O)CNC(=O)[C@@H](NC(=O)[C@@H]1CCCN1C(=O)[C@@H](NC(=O)[C@H](CC(=O)O)NC(=O)[C@H](CC(C)C)NC(=O)[C@H](CO)NC(=O)[C@H](CC(C)C)NC(=O)[C@@H](NC(=O)[C@@H](N)[C@@H](C)CC)C(C)C)C(C)C)[C@@H](C)CC)[C@@H](C)CC)C(=O)N[C@@H](CCC(N)=O)C(=O)N[C@@H](C)C(=O)N[C@H](C(=O)N[C@H](C(=O)N[C@@H](CC(N)=O)C(=O)N[C@@H](C)C(=O)N[C@@H](CCCNC(=N)N)C(=O)N[C@H](C(=O)N[C@@H](CC(C)C)C(=O)N[C@@H](C)C(=O)N[C@@H](CCCNC(=N)N)C(=O)N[C@H](C(N)=O)C(C)C)[C@@H](C)CC)[C@@H](C)O)[C@@H](C)O)C(=O)O)C(=O)O [Compound 34] (H-IVLSLDVPIGLLQILLEQEKQEKEKK([γGlu-γGlu-Palmitoyl])QATTNARILARV-NH2) | 4.54 nM |
| CCCCCCCCCCCCCCCC(=O)N[C@@H](CCC(=O)NCCCC[C@H](NC(=O)[C@H](CCCCN)NC(=O)[C@H](CCC(=O)O)NC(=O)[C@H](CCC(N)=O)NC(=O)[C@H](CCC(=O)O)NC(=O)[C@H](CC(C)C)NC(=O)[C@H](CC(C)C)NC(=O)[C@@H](NC(=O)[C@H](CCC(N)=O)NC(=O)[C@H](CC(C)C)NC(=O)[C@H](CC(C)C)NC(=O)CNC(=O)[C@@H](NC(=O)[C@@H]1CCCN1C(=O)[C@@H](NC(=O)[C@H](CC(=O)O)NC(=O)[C@H](CC(C)C)NC(=O)[C@H](CO)NC(=O)[C@H](CC(C)C)NC(=O)[C@@H](NC(=O)[C@@H](N)[C@@H](C)CC)C(C)C)C(C)C)[C@@H](C)CC)[C@@H](C)CC)C(=O)N[C@@H](CCC(=O)O)C(=O)N[C@@H](CCCCN)C(=O)N[C@@H](CCC(=O)O)C(=O)N[C@@H](CCCCN)C(=O)N[C@@H](CCC(N)=O)C(=O)N[C@@H](CCC(N)=O)C(=O)N[C@@H](C)C(=O)N[C@H](C(=O)N[C@H](C(=O)N[C@@H](CC(N)=O)C(=O)N[C@@H](C)C(=O)N[C@@H](CCCNC(=N)N)C(=O)N[C@H](C(=O)N[C@@H](CC(C)C)C(=O)N[C@@H](C)C(=O)N[C@@H](CCCNC(=N)N)C(=O)N[C@H](C(N)=O)C(C)C)[C@@H](C)CC)[C@@H](C)O)[C@@H](C)O)C(=O)O [Compound 26] (H-IVLSLDVPIGLLQILLEQEKK([γGlu-Palmitoyl])EKEKQQATTNARILARV-NH2) | 15.6 nM |
| CC[C@H](C)[C@H](N)C(=O)N[C@H](C(=O)N[C@@H](CC(C)C)C(=O)N[C@@H](CO)C(=O)N[C@@H](CC(C)C)C(=O)N[C@@H](CC(=O)O)C(=O)N[C@H](C(=O)N1CCC[C@H]1C(=O)N[C@H](C(=O)NCC(=O)N[C@@H](CC(C)C)C(=O)N[C@@H](CC(C)C)C(=O)N[C@@H](CCC(N)=O)C(=O)N[C@H](C(=O)N[C@@H](CC(C)C)C(=O)N[C@@H](CC(C)C)C(=O)N[C@@H](CCC(=O)O)C(=O)N[C@@H](CCC(N)=O)C(=O)N[C@@H](CCC(=O)O)C(=O)N[C@@H](CCCCN)C(=O)N[C@@H](CCC(N)=O)C(=O)N[C@@H](CCC(=O)O)C(=O)N[C@@H](CCCCN)C(=O)N[C@@H](CCC(=O)O)C(=O)N[C@@H](CCCCN)C(=O)N[C@@H](CCC(N)=O)C(=O)N[C@@H](CCC(N)=O)C(=O)N[C@@H](C)C(=O)N[C@@H](CCCCNC(=O)COCCOCCNC(=O)COCCOCCNC(=O)CC[C@H](NC(=O)CC[C@H](NC(=O)CCCCCCCCCCCCCCCCC(=O)O)C(=O)O)C(=O)O)C(=O)N[C@@H](CCC(=O)O)C(=O)N[C@@H](CC(N)=O)C(=O)N[C@@H](C)C(=O)N[C@@H](CCC(N)=O)C(=O)N[C@H](C(=O)N[C@@H](CC(C)C)C(=O)N[C@@H](C)C(=O)N[C@@H](CCC(N)=O)C(=O)N[C@H](C(N)=O)C(C)C)[C@@H](C)CC)[C@@H](C)CC)[C@@H](C)CC)C(C)C)C(C)C [Compound 55] (H-IVLSLDVPIGLLQILLEQEKQEKEKQQAK([AEEA-AEEA-γGlu-γGlu-C18 diacid])ENAQILAQV-NH2) | 1.51 nM |
| CCCCCCCCCCCCCCCC(=O)N[C@@H](CCC(=O)NCCCC[C@H](NC(=O)[C@@H](NC(=O)[C@H](C)NC(=O)[C@H](CCC(N)=O)NC(=O)[C@H](CCC(N)=O)NC(=O)[C@H](CCCCN)NC(=O)[C@H](CCC(=O)O)NC(=O)[C@H](CCCCN)NC(=O)[C@H](CCC(=O)O)NC(=O)[C@H](CCC(N)=O)NC(=O)[C@H](CCCCN)NC(=O)[C@H](CCC(=O)O)NC(=O)[C@H](CCC(N)=O)NC(=O)[C@H](CCC(=O)O)NC(=O)[C@H](CC(C)C)NC(=O)[C@H](CC(C)C)NC(=O)[C@@H](NC(=O)[C@H](CCC(N)=O)NC(=O)[C@H](CC(C)C)NC(=O)[C@H](CC(C)C)NC(=O)CNC(=O)[C@@H](NC(=O)[C@@H]1CCCN1C(=O)[C@@H](NC(=O)[C@H](CC(=O)O)NC(=O)[C@H](CC(C)C)NC(=O)[C@H](CO)NC(=O)[C@H](CC(C)C)NC(=O)[C@@H](NC(=O)[C@@H](N)[C@@H](C)CC)C(C)C)C(C)C)[C@@H](C)CC)[C@@H](C)CC)[C@@H](C)O)C(=O)N[C@@H](CC(N)=O)C(=O)N[C@@H](C)C(=O)N[C@@H](CCCNC(=N)N)C(=O)N[C@H](C(=O)N[C@@H](CC(C)C)C(=O)N[C@@H](C)C(=O)N[C@@H](CCCNC(=N)N)C(=O)N[C@H](C(N)=O)C(C)C)[C@@H](C)CC)C(=O)O [Compound 39] (H-IVLSLDVPIGLLQILLEQEKQEKEKQQATK([γGlu-Palmitoyl])NARILARV-NH2) | 27 nM |
| CCCCCCCCCCCCCCCC(=O)N[C@@H](CCC(=O)NCCCC[C@H](NC(=O)[C@H](CCC(N)=O)NC(=O)[C@H](CC(C)C)NC(=O)[C@H](CC(C)C)NC(=O)CNC(=O)[C@@H](NC(=O)[C@@H]1CCCN1C(=O)[C@@H](NC(=O)[C@H](CC(=O)O)NC(=O)[C@H](CC(C)C)NC(=O)[C@H](CO)NC(=O)[C@H](CC(C)C)NC(=O)[C@@H](NC(=O)[C@@H](N)[C@@H](C)CC)C(C)C)C(C)C)[C@@H](C)CC)C(=O)N[C@@H](CC(C)C)C(=O)N[C@@H](CC(C)C)C(=O)N[C@@H](CCC(=O)O)C(=O)N[C@@H](CCC(N)=O)C(=O)N[C@@H](CCC(=O)O)C(=O)N[C@@H](CCCCN)C(=O)N[C@@H](CCC(N)=O)C(=O)N[C@@H](CCC(=O)O)C(=O)N[C@@H](CCCCN)C(=O)N[C@@H](CCC(=O)O)C(=O)N[C@@H](CCCCN)C(=O)N[C@@H](CCC(N)=O)C(=O)N[C@@H](CCC(N)=O)C(=O)N[C@@H](C)C(=O)N[C@H](C(=O)N[C@H](C(=O)N[C@@H](CC(N)=O)C(=O)N[C@@H](C)C(=O)N[C@@H](CCCNC(=N)N)C(=O)N[C@H](C(=O)N[C@@H](CC(C)C)C(=O)N[C@@H](C)C(=O)N[C@@H](CCCNC(=N)N)C(=O)N[C@H](C(N)=O)C(C)C)[C@@H](C)CC)[C@@H](C)O)[C@@H](C)O)C(=O)O [Compound 21] (H-IVLSLDVPIGLLQK([γGlu-Palmitoyl])LLEQEKQEKEKQQATTNARILARV-NH2) | 5.25 nM |
